pIC50: −log10 of the molar value. Read-outs that look alike come from different tables or passages of the source. Some results are limits rather than exact numbers.

Experiment [1] relates to primary human neutrophils. Briefly: Generation of reactive oxygen species by fMLP-activated neutrophils (luminol-enhanced chemiluminescence). Type of experiment: cell-based. The conditions noted are these: Neutrophil. From the text:
Neutrophil activation can be measured by quantitation of ROS generated in vitro. Measurement of ROS allows specific quantitation of a pro-inflammatory species and is also a general measure of neutrophil activation. The most sensitive method for measuring the production of ROS by neutrophils is luminol-enhanced chemiluminescence. […] The assay system used to evaluate the ability of compounds to inhibit ROS generation in neutrophils is indicative of anti-inflammatory activity that may be efficacious in disease states including but not limited to rheumatoid arthritis and inflammatory bowel disease.
Freshly isolated primary human neutrophils (5×10^6 cells/mL) were incubated with the required concentrations of compound or vehicle for 30 minutes at 37° C. in HBSS buffer (pH 7.4) containing Ca^2+. 100 nM wortmannin was used as a positive control. Aliquots of each sample were transferred to a microtitre plate to which luminol (1 μM); obtained from Sigma; Catalogue No. A8511 is added. Activation of the neutrophils was immediately initiated by addition of (1 μM) fMLP; obtained from Sigma, Catalogue No. F3506. Light output from each well was recorded for 30 minutes in a microplate luminometer. Total light output (integral of the time-course) was determined for each well. Inhibitory activities of test drugs against neutrophil ROS generation is expressed as percentage activity relative to a no drug control (100% activation or generation of ROS) containing 0.25% DMSO. Concentration of test compound required to inhibit the generation of ROS to 50% of control values (IC50's) were determined from concentration-response curves by non-linear regression analysis.

Experiment [2] has as its target T1, cAMP phosphodiesterase 3 from human platelets (Homo sapiens, UniProt Q14432).
T1 construct: from tissue; host or cells: human platelets, cytoplasmic extract
Description: Inhibition of cAMP phosphodiesterase 3 from human platelets. Type of experiment: biochemical. The settings on record: PDE3, platelet cell extract, X marks this range; for IC50: read-out: IC50 range (μM) 10-100. From the text:
Compound 12 was screened for activity against 5 of the major classes of mammalian cyclic nucleotide phosphodiesterase (termed PDE 1 through 5). PDE's 1 through 4 utilize cAMP as substrate while PDE 5 uses cGMP. The broad specificity PDE inhibitor 3-isobutyl-1-methylxanthine (IBMX; Sigma; Catalogue No. 17018)) was used as a positive control in all assays. PDE's for the various assays were partially purified from the following cells/tissues; PDE 1 (bovine heart), PDE 2 (human platelets), PDE 3 (human platelets), PDE 4 (human promonocytic U937 cells) and PDE 5 (human platelets).
Platelet cell extracts were prepared as described above for the U937 cells. The PDE3 assay was performed using platelet cell extract as described above for the PDE 4 assay. Platelets contain PDE 2, 3 and 5. However PDE2 and 5 preferentially utilize cGMP, so in an assay with cAMP as a substrate they are not detected.

The subject of experiment [3] is High Affinity Rolipram Binding Site of PDE4 in Mouse Brain. Briefly: Displacement of [3H]-rolipram from its high affinity binding site (HARBS). The settings on record: ratio of IC50 for PDE4 catalytic activity to concentration displacing 50% of rolipram from HARBS. The protocol:
Suspension was centrifuged twice at 30,000×G at 4° C. and the supernatant discarded. The pellet was resuspended in buffer, and adjusted to a protein concentration of 0.5 mg/mL. Drugs to be tested were dissolved in DMSO and pipetted in triplicate into a 96 well microplate at concentrations ranging from 1 to 30,000 nM. […] The plate was incubated at 4° C. for 1 hour. Contents of the plate were aspirated through a Whatman GF/C filterplate, and rinsed with 4×200 μL ice-cold buffer. […] Triplicate determinations were performed at each concentration.
(Displacement assays read how much labelled ligand stays bound in the presence of the test substance.)

In experiment [4] the test system is cAMP response element luciferase activity in human U937 monocytic cells. Description: Potentiation of forskolin-induced CRE-luciferase activity in U937 cells. Type of experiment: cell-based. The settings on record: U-937, U937 cells co-incubated with 10 μM forskolin, 4 hours, X marks this range. The protocol: Compounds of the present invention were thereby shown to provide potentiated luciferase expression in U937 cells treated with the adenylyl cyclase activator forskolin.
Human pro-monocytic U937 cells were maintained in RPMI medium containing 10% FCS and 2 mM […]. U937 cells were transiently transfected as described in Biotechniques Vol. 17(6):1058, 1994. Briefly, cells were grown in medium containing serum to a density of 5×10^6 cells/mL and then resuspended in media containing serum at a density of approximately 1×10^7 cells/mL. 400 μL of cells were transferred into the electroporation cuvette containing 10 μg of the reporter vector (PCRE-luc) in a volume of 40 μL H2O. Reporter vector DNA was prepared from DH5α E. coli using the DNA […] free kit (Qiagen) as per manufacturers instructions. U937 cells were clectroporated at room temperature using a BIORAD electroporator. Capacitance was set to 1050 μF and voltage was 280V. The time constant was noted after each electroporation. Cells were then diluted in 4 mL of media and serum and 200 μL of cells were plated per well. Cells were allowed to recover for 16-18 hours. Cells were then treated with a test compound or vehicle in the presence or absence of 10 μM forskolin for 4 hours at 37° C.
The luciferase assay was performed as per manufacturers instructions (Tropix). Briefly, cells were centrifuged for 4 minutes at 1200 rpm and media supernatant was removed. Cell pellets were lysed in 15 μL Lysis buffer (Tropix). Luciferase assay was performed using 10 μL of cell lysate with 10 μL of buffer A and 25 μL buffer B. Luciferase activity was obtained using a luminometer with a 5-second delay followed by a read time of 10 seconds.

[5] abbreviates: read-out: IC50 RANGE (μM) >100, ROS production, X marks this range.
The mark [6] stands for this setting: read-out: EC50 range (μM) 0.1-1.
Setting [7] is: read-out: IC50 RANGE (μM) <1, ROS production, X marks this range.
The mark [8] stands for this setting: ROS production, X marks this range, read-out: IC50 RANGE (μM) 1-10.

T1 sequence (Q14432 whole entry): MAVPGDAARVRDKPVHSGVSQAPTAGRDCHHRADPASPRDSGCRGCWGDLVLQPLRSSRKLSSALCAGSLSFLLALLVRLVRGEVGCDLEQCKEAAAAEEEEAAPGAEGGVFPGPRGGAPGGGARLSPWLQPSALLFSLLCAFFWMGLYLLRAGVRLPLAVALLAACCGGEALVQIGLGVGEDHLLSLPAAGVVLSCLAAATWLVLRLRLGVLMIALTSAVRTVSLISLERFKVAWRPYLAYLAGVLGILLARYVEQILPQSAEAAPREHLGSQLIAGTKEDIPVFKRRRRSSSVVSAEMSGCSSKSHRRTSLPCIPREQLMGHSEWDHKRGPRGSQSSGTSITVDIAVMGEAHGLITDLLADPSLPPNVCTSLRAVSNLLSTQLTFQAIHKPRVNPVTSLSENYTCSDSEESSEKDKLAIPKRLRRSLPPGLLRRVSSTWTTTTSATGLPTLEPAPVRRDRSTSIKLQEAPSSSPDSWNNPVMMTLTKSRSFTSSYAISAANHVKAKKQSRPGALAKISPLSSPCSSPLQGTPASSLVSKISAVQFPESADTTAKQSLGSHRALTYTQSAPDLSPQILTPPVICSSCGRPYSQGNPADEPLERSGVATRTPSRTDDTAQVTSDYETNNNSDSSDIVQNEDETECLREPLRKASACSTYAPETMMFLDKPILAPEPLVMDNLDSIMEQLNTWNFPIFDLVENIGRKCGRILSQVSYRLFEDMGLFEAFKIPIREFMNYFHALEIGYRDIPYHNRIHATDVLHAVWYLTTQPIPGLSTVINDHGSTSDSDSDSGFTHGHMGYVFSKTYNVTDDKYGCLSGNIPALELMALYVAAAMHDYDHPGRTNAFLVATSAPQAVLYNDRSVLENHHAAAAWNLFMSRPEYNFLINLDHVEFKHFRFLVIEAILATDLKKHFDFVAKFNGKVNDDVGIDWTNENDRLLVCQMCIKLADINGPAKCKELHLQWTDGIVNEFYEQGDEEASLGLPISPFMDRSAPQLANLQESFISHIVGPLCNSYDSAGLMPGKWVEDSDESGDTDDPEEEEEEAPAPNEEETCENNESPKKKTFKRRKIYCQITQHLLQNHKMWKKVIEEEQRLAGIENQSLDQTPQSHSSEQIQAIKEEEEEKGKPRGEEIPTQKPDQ

As a reminder, the IC50 is the concentration that gives 50% inhibition. The term EC50 denotes the concentration that produces a half-maximal response. For the compound `COc1cc(CC2C[C@@H](c3ccc(OC)c(OC4CCCC4)c3)CNC2=O)ccc1OCc1ccccc1` (stereo partly drawn) [Compound 61], the IC50 in experiment [1] (setting [5]) is > 100 µM; in experiment [2] it was 10 to 100 µM. Besides, the “PDE4:HARBS” value in experiment [3] is <1. Further, the EC50 in experiment [4] (read-out: EC50 range (μM) 1-25) is 1 to 25 µM.

Usually pIC50 stands for the IC50 on a negative log10 scale, so that one unit is a factor of ten. A high value points to a low IC50. As to `COc1ccc([C@H]2COC(=O)C(Cc3ccc(OCc4ccccc4)c(OCc4ccccc4)c3)C2)cc1OC` (stereo partly drawn) [Compound 79], the IC50 in experiment [1] (setting [5]) is > 100 µM. Besides, in experiment [2], the pIC50 was < 4.00. For the same compound, the “PDE4:HARBS” value in experiment [3] is <1. In experiment [4] (setting [6]), the EC50 was in the range of 0.1 to 1 µM.

`COc1ccc([C@H]2COC(=O)C(Cc3ccc(O)c(N)c3)C2)cc1OC1CCCC1` (stereo partly drawn) [Compound 94]: in experiment [1] (setting [7]), the IC50 was < 1 µM. The pIC50 in experiment [2] is < 4.00. In experiment [3], the “PDE4:HARBS” value is reported as >1. The EC50 in experiment [4] (setting [6]) was in the range of 0.1 to 1 µM.

Consider `COc1ccc(CC2C[C@@H](c3ccc(OC)c(OC)c3)COC2=O)cc1` (stereo partly drawn) [Compound 132], for which the values for the IC50 in experiment [1] (setting [5]) and in experiment [2] were > 100 µM and 10 to 100 µM, respectively. Moreover, the “PDE4:HARBS” value in experiment [3] is reported as <1. In addition, in experiment [4] (read-out: EC50 range (μM) 1-25), the EC50 is 1 to 25 µM.

As to `COc1ccc([C@H]2COC(=O)C(Cc3ccc(O)cc3)C2)cc1OC` (stereo partly drawn) [Compound 133], the IC50 in experiment [1] (setting [7]) was < 1 µM. Moreover, the pIC50 in experiment [2] is < 4.00. For the same compound, in experiment [3], the “PDE4:HARBS” value is recorded as <1. Further, the EC50 in experiment [4] (read-out: EC50 range (μM) 1-25) was in the range of 1 to 25 µM.

Take `COc1ccc([C@H]2COC(=O)C(Cc3ccc(OC)c(OCc4ccccc4)c3)C2)cc1OC` (stereo partly drawn) [Compound 135]: the IC50 in experiment [1] (setting [7]) was < 1 µM; in experiment [2] it was 10 to 100 µM. For the same compound, in experiment [3], the “PDE4:HARBS” value is <1. Further, the EC50 in experiment [4] (read-out: EC50 range (μM) 1-25) was 1 to 25 µM.

Consider `COc1ccc([C@@H]2CCC(=O)OC2)cc1OC(C)C` [Compound 155], for which the IC50 in experiment [1] (setting [8]) fell in the range of 1 to 10 µM. In experiment [2], the pIC50 was < 4.00. In addition, in experiment [3], the “PDE4:HARBS” value is reported as <1. Further, the EC50 is 0.1 to 1 µM in experiment [4] (setting [6]) and 1 to 25 µM in experiment [4] (read-out: EC50 range (μM) 1-25).

Regarding `C=C(C)COc1cc([C@@H]2CCC(=O)OC2)ccc1OC` [Compound 156], the IC50 in experiment [1] (setting [7]) is < 1 µM. Also, the pIC50 in experiment [2] was < 4.00. Also, the “PDE4:HARBS” value in experiment [3] came to 1. In addition, in experiment [4] (setting [6]), the EC50 lay within 0.1 to 1 µM.

On to `COc1ccc([C@@H]2CCC(=O)OC2)cc1OCC1CCC1` [Compound 157], for which, in experiment [1] (setting [7]), the IC50 is < 1 µM. Also, the pIC50 in experiment [2] was < 4.00. Further, the “PDE4:HARBS” value in experiment [3] was >1. For the same compound, the EC50 in experiment [4] (setting [6]) lay in the range of 0.1 to 1 µM.

Take `COc1ccc([C@H]2COC(=O)C(Cc3ccccc3)C2)cc1OC1CCCC1` (stereo partly drawn) [Compound 168]: the IC50 in experiment [1] (setting [7]) is < 1 µM. Also, the pIC50 in experiment [2] is < 4.00. In addition, the “PDE4:HARBS” value in experiment [3] is recorded as <1. In addition, in experiment [4] (read-out: EC50 range (μM) 1-25), the EC50 was 1 to 25 µM.

Take `COc1ccc([C@H]2COC(=O)C(Cc3ccccc3[N+](=O)[O-])C2)cc1OC1CCCC1` (stereo partly drawn) [Compound 174]: the IC50 in experiment [1] (setting [5]) is > 100 µM. In experiment [2], the pIC50 is < 4.00. Further, the “PDE4:HARBS” value in experiment [3] is recorded as <1. Besides, in experiment [4] (read-out: EC50 range (μM) >25), the EC50 was > 25 µM.

Take `COc1ccc([C@H]2COC(=O)C(Cc3cccc([N+](=O)[O-])c3)C2)cc1OC1CCCC1` (stereo partly drawn) [Compound 175]: in experiment [1] (setting [8]), the IC50 was 1 to 10 µM. For the same compound, the pIC50 in experiment [2] was < 4.00. For the same compound, in experiment [3], the “PDE4:HARBS” value was <1. In addition, the EC50 in experiment [4] (read-out: EC50 range (μM) 1-25) lay within 1 to 25 µM.

For the compound `COc1ccc(CC2(Cc3ccc(OC)c(O)c3)C[C@@H](c3ccc(OC)c(OC4CCCC4)c3)COC2=O)cc1O` [Compound 181], the IC50 in experiment [1] (setting [8]) was 1 to 10 µM. Further, the pIC50 in experiment [2] was < 4.00. The “PDE4:HARBS” value in experiment [3] is listed as <1. Besides, the EC50 in experiment [4] (read-out: EC50 range (μM) >25) is > 25 µM.

On to `COc1ccc([C@H]2COC(=O)C(Cc3cccc(N)c3)C2)cc1OC1CCCC1` (stereo partly drawn) [Compound 184], for which, in experiment [1] (setting [7]), the IC50 is < 1 µM. The pIC50 in experiment [2] is < 4.00. For the same compound, the “PDE4:HARBS” value in experiment [3] was >1. The EC50 in experiment [4] (read-out: EC50 range (μM) 1-25) was 1 to 25 µM.

For the origin of these results see US20030186943A1, “Substituted gamma-phenyl-delta-lactams and uses related thereto” (Inflazyme Pharmaceuticals Ltd., priority 1998, published 2003).
